Values of other authors as cited in US8758840B2, “Method of treating areas of osteoarthritis in animals and human beings with milkweed seed oil” (Natural Fibers Corporation, priority 2011, dated 2014).

Test system: pro-inflammatory and matrix degradation mediators involved in osteoarthritis-induced cartilage degradation
Conditions: laboratory tests, Gabay et al. 2010

For `CC[C@H](/C=C/[C@@H](C)[C@H]1CC[C@H]2[C@@H]3CC=C4C[C@@H](O)CC[C@]4(C)[C@H]3CC[C@]12C)C(C)C` [stigmasterol], the “effect on pro-inflammatory and matrix degradation mediators” value is given as “inhibits several pro-inflammatory and matrix degradation mediators”.
